The source of these data is patent publication US20110009267A1, “Process for Improving Seedling Growth and/or Early Emergence of Crops” (Bayer CropScience AG, priority 2009, published 2011).

What all share (format): in vivo
Assay [1] has as its system Soybean variety "Cordoba". The experiment in a line: Plant growth test, greenhouse, seed treatment, soybean variety Cordoba. The note with it: for Green surface, % of untreated: 15 days; for Green surface: 15 days at 20° C., 80% relative humidity. The procedure: (§1) The test is performed in the greenhouse. 7 soybean seeds per treatment of 2 varieties (Cordoba and Isidor) were sown in 5 liter pots containing 13 cm of a mix of steamed field soil and sand (1:1), 2 replicates were made. The tested compound as well as the reference active ingredient were both solved in a standard solvent used for soybean seed application and known to be safe. Seed treatment was performed with the aid of laboratory equipment. For untreated, 4 replicates were made and seeds were treated with the pure solvent. 2 fungicide concentrations were tested: 5 g a.i./100 kg and 10 g a.i./100 kg. Seeds were then covered by 5 cm of the same mix of steamed field soil and sand (1:1). Pots were incubated in the greenhouse 15 days at 20° C. and 80% relative humidity. Assessment consisted of calculation of green surface of soybean (pixel) using a digital imaging software to manage data analysis.

A further assay relates to Soybean variety "Isidor". The experiment in a line: Plant growth test, greenhouse, seed treatment, soybean variety Isidor. The note with it: for Green surface, % of untreated: 15 days; for Green surface: 15 days at 20° C., 80% relative humidity. As for the experimental part: as §1
The test system of the next assay is soybean seeds. The assay can be described thus: Emergence of soybean plants after seed treatment. The note with it: soybean seeds treated.

Take `O=C(Nc1ccccc1-c1ccc(Cl)cc1)c1cccnc1Cl` [Boscalid, reference compound]: the “Green surface, % of untreated” value in assay [1] (seed treatment 5 g a.i./100kg) is 109 % of untreated; in assay [1] (seed treatment 10 g a.i./100kg), 113 % of untreated; with Soybean variety "Isidor" (seed treatment 5 g a.i./100kg), 86 % of untreated; with Soybean variety "Isidor" (seed treatment 10 g a.i./100kg) it was 86 % of untreated. Moreover, the Green surface is 74661 pixel in assay [1] (seed treatment 5 g a.i./100kg), 77243 pixel in assay [1] (seed treatment 10 g a.i./100kg), 71972 pixel in the assay on Soybean variety "Isidor" (seed treatment 5 g a.i./100kg) and 72634 pixel in the assay on Soybean variety "Isidor" (seed treatment 10 g a.i./100kg).
Consider `Cc1nn(C)c(F)c1C(=O)Nc1ccccc1C(C)CC(C)C` (centres unmarked) [Penflufen, N-{2-(1,3-dimethylbutyl)anilino}-1,3-dimethyl-5-fluor-4-pyrazol], for which, in the assay on soybean seeds, the “Emergence of the soybean plants in comparison to untreated plants” value is recorded as “earlier emergence”. Besides, the “Green surface, % of untreated” value in assay [1] (seed treatment 5 g a.i./100kg) is listed as 160 % of untreated; in assay [1] (seed treatment 10 g a.i./100kg), 158 % of untreated; in the assay with Soybean variety "Isidor" (seed treatment 5 g a.i./100kg), 125 % of untreated; in the assay on Soybean variety "Isidor" (seed treatment 10 g a.i./100kg) it was 133 % of untreated. Besides, the Green surface in assay [1] (seed treatment 5 g a.i./100kg) came out at 109373 pixel; in assay [1] (seed treatment 10 g a.i./100kg), 108284 pixel; in the assay on Soybean variety "Isidor" (seed treatment 5 g a.i./100kg), 105395 pixel; in the assay with Soybean variety "Isidor" (seed treatment 10 g a.i./100kg), 111543 pixel.
